PMC11466185, “Mechanisms and efficacy of small molecule latency-promoting agents to inhibit HIV reactivation ex vivo” (JCI Insight, 2024)
Values joined by “and” are separate entries in the source; they are usually repeats but may differ in a detail not shown here. Identical values can stand only once. Like-named read-outs stand apart in the source and are kept apart here.

Legend:
PBMCs [1] = type: cell-based, human; conditions: 6 days after αCD3/28 activation, each row one participant
Procedure: (§1) Next, we evaluated the ability of the candidate LPAs to sustain the inhibitory effects during a prolonged ex vivo culture. To this end, PBMCs were cultured in the presence of individual drugs in DMSO or in DMSO alone as control, activated (anti-CD3/CD28), and harvested after 6 days. […] However, we decided to test the drug on day 6 because extra cells were available from some study participants.
(§2) For quantification of cell-associated HIV transcripts, PBMCs were harvested either after 24 hours or after 6 days. The cell viabilities were measured by trypan blue staining; then the cells were pelleted by centrifuging at 300g for 6 minutes and stored at –80°C. For quantification of virion-associated HIV RNA, cell culture supernatant was collected from 6 × 10^6 PBMCs that were treated and activated for 6 days as described above. Residual cells and cellular debris were subsequently removed from the supernatant by differential centrifugation (300g for 6 minutes, then 20,000g for 10 minutes), and the supernatant was stored at –80°C.
A) After six days, the viability was measured by trypan blue staining and then normalized to the levels of the activated DMSO (% of activated DMSO). Bars indicate medians and different colors indicate individual study participants. B-F) Each drug was tested in PBMCs from at least six ART-suppressed study participants (except for KRIBB11, n=5) and the PBMCs were aliquoted into wells at 6x10^6 cells/well. After activation, the cells were cultured with antiretrovirals in the presence of individual drugs in DMSO or DMSO alone as control. After six days, total RNA was extracted and the progression through different stages of HIV transcription was (1 picture or pasted object on this page, not shown here)

[2] = tested on: HIV transcripts (TAR, LLTR, Pol, PolyA, TatRev); experiment: Cell-associated HIV transcripts (RT-ddPCR) 6 days after anti-CD3/CD28 activation of PBMCs from ART-suppressed PWH; type: cell-based; conditions: for LLTR/TAR / PolyA/LLTR / TatRev/PolyA: DMSO+CD3/28 = 1, Fig 4B, C and D; for Pol / PolyA / TAR / TatRev: DMSO αCD3/28 = 100, Fig 4A
Procedure: as §1
Each drug was tested in PBMCs from at least 6 ART-suppressed study participants (except for KRIBB11, n = 5). PBMCs were aliquoted into wells at 6 × 10^6 cells/well. After activation, the cells were cultured with antiretrovirals in the presence of individual drugs in DMSO or DMSO alone as control. All conditions were tested in the presence of CD3/28 T cell–activating beads, except for the unactivated DMSO condition. After 6 days, total cellular RNA was extracted, and the progression through different stages of HIV transcription was quantified by measuring the levels of initiated (TAR), 5′ elongated (LLTR), midtranscribed/unspliced (Pol), completed (PolyA), and multiply spliced (TatRev) HIV transcripts. (A) The levels of all HIV transcripts were normalized to 1 μg of total cellular RNA and expressed as a percentage of the activated DMSO control (% of activated DMSO). Medians are shown as well as the individual values per study participant in different colors. (B–D) The effect of each drug on HIV transcriptional progression after activation was analyzed by the ratio of one HIV transcript to another. Ratios are independent of HIV infection frequency or normalization to cell numbers. Shown are the proportion of (B) all HIV transcripts that are elongated (LLTR/TAR), (C) elongated HIV transcripts that are completed (PolyA/LLTR), and (D) completed transcripts that are multiply spliced (TatRev/PolyA). Medians and IQR are presented, along with the individual values per study participant in different colors. P values were calculated using Wilcoxon’s signed-rank test: *P < 0.05.
PBMCs were isolated from fresh venous blood from 16 ART-suppressed HIV-infected study participants using Ficoll density gradient centrifugation. The cells were seeded at 6 × 10^6 cells/well and cultured with antiretrovirals (nevirapine and indinavir) to prevent new infection. On the next day, PBMCs were activated with anti-CD3/CD28–coated beads (Invitrogen) in the presence of 20 U/mL IL-2 and individual drugs in DMSO or DMSO alone as a control. Since we were limited in the PBMC yield per study participant, different study participants were used for different experiments (such as the initial screen, dose response, different time points, and studies in activated vs. unstimulated cells). In addition, the yields of PBMCs were sometimes insufficient to test all drugs for a given question or experiment.
as §2
Total cellular DNA and RNA were extracted in parallel using Trireagent (Molecular Research Center) according to the manufacturer’s instructions, except for study participants 2147 and 2461 (Figure 4), for whom DNA and RNA were extracted using the QIAGEN AllPrep DNA/RNA/miRNA Universal Kit with on-column DNase I treatment of the RNA and the manufacturer’s modification to enhance recovery of short transcripts.

PBMCs [3] = experiment: Cell viability by trypan blue staining after 24 hours; type: cell-based, human; parameters: key to Viability (dose-response): % of activated DMSO control viability; conditions: for Viability (dose-response): 1 participant per drug, in % (unit assumed)
Summary of the method: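 PBMCs from ART-suppressed donors at 6 × 10^6 cells/well were activated with CD3/28 beads and cultured with antiretrovirals plus drug in DMSO. Viability counted by trypan blue after 24 hours. Values were normalized to the activated DMSO control.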

In the case of CC(=O)N[C@@H]1CCC[C@H](C(=O)Nc2cc(-c3cnn4c3CC(C)(C)C4)c(Cl)cn2)C1 [AZD4573], the “Cell viability (DMSO αCD3/28 = 100)” value (PBMCs [1]; 8nM) is reported as 123.6 and 120.68 and 105.88 and 140.1 and 117.5 and 116.7 and 104.1, the LLTR/TAR ([2]; participant 2027) is reported as 0.3501 and the PolyA/LLTR ([2]; participant 2027) is reported as 0.2124. It also gave a TatRev/PolyA ([2]; participant 2027) of 0, an LLTR/TAR ([2]; participant 2147a) of 0.6972 and a PolyA/LLTR ([2]; participant 2147a) of 0.4073. For the same compound, the TatRev/PolyA ([2]; participant 2147a) was 0.2876, the LLTR/TAR ([2]; participant 2161) was 0.7137 and the PolyA/LLTR ([2]; participant 2161) was 1.39. The TatRev/PolyA ([2]; participant 2161) was 0, the LLTR/TAR ([2]; participant 2461) was 1.973 and the PolyA/LLTR ([2]; participant 2461) was 0.4151. It also gave a PolyA/LLTR ([2]; participant 2747) of 0.4425, an LLTR/TAR ([2]; participant 2750) of 0.6631 and a PolyA/LLTR ([2]; participant 2750) of 1.188. For the same compound, the TatRev/PolyA ([2]; participant 2750) was 0.2617, the “Viability (dose-response)” value (PBMCs [3]; dose 1 nM) was 74.75 and the “Viability (dose-response)” value (PBMCs [3]; dose 8 nM) was 63.616. The “Viability (dose-response)” value (PBMCs [3]; dose 20 nM) was 68.369, the “Viability (Fig 1A)” value (PBMCs [3]; study participant 150a) was 106.07 % of activated DMSO and the “Viability (Fig 1A)” value (PBMCs [3]; study participant 152) was 97.45 % of activated DMSO.
COc1ccc(-c2cc(=O)c3c(O)cc(O)c(-c4cc(-c5cc(=O)c6c(O)cc(O)cc6o5)ccc4OC)c3o2)cc1 [isoginkgetin] was tested, and the “Cell viability (DMSO αCD3/28 = 100)” value (PBMCs [1]; 25μM) was 120.3 and 106.36 and 93.99 and 112.22 and 91.65 and 74.9 and 87.5 and 124.6, the LLTR/TAR ([2]; participant 150b) was 0.8798 and the PolyA/LLTR ([2]; participant 150b) was 1.092. The TatRev/PolyA ([2]; participant 150b) was 1.01, the LLTR/TAR ([2]; participant 1379) was 1.373 and the PolyA/LLTR ([2]; participant 1379) was 0.4663. It also gave an LLTR/TAR ([2]; participant 2027) of 0.7253, a PolyA/LLTR ([2]; participant 2027) of 0.8811 and an LLTR/TAR ([2]; participant 2147a) of 0.06726. The PolyA/LLTR ([2]; participant 2147a) was 1.437, the TatRev/PolyA ([2]; participant 2147a) was 0.8892 and the LLTR/TAR ([2]; participant 2161) was 0.6564. The PolyA/LLTR ([2]; participant 2161) was 0.57, the LLTR/TAR ([2]; participant 2256) was 1.751 and the PolyA/LLTR ([2]; participant 2256) was 0.07578. For the same compound, the LLTR/TAR ([2]; participant 2461) was 1.166, the PolyA/LLTR ([2]; participant 2461) was 0.2875 and the LLTR/TAR ([2]; participant 2747) was 0. The LLTR/TAR ([2]; participant 5557) was 0.8133, the PolyA/LLTR ([2]; participant 5557) was 0.9591 and the TatRev/PolyA ([2]; participant 5557) was 0.5795. For the same compound, the “Cell viability (in words)” value (PBMCs [3]; initial screening concentrations, Figure 1A) was “impact on cell viability”, the “Viability (Fig 1A)” value (PBMCs [3]; study participant 150a) was 88.97 % of activated DMSO and the “Viability (Fig 1A)” value (PBMCs [3]; study participant 152) was 84.74 % of activated DMSO.
In the case of CO[C@H]([C@@H](C)[C@H]1O[C@]1(C)C[C@H](C)/C=C/C=C(\C)[C@H]1O[C@@H](CC(=O)O)CC[C@@H]1C)[C@@H](C)O [herboxidiene], the “Cell viability (DMSO αCD3/28 = 100)” value (PBMCs [1]; 5nM) is reported as 119.6 and 123.7 and 95.53 and 100.64 and 118.06 and 114.9 and 85 and 106.6 and 119.5, the “LLTR HIV transcripts (DMSO αCD3/28 = 100)” value ([2]; 5nM, 6 days after αCD3/28 activation, each column one participant) is reported as 64.2 and 58.48 and 54.61 and 276.32 and 371.71 and 49.79 and 55 and 16.86 and the Pol ([2]; participant 150b) is reported as 43.29. The PolyA ([2]; participant 150b) was 23.53, the TAR ([2]; participant 150b) was 92.09 and the TatRev ([2]; participant 150b) was 2.69. For the same compound, the LLTR/TAR ([2]; participant 150b) was 0.5407, the PolyA/LLTR ([2]; participant 150b) was 0.4726 and the TatRev/PolyA ([2]; participant 150b) was 0.11. For the same compound, the Pol ([2]; participant 1379) was 47.94, the PolyA ([2]; participant 1379) was 28.08 and the TAR ([2]; participant 1379) was 40.01. For the same compound, the TatRev ([2]; participant 1379) was 171.43, the LLTR/TAR ([2]; participant 1379) was 1.462 and the PolyA/LLTR ([2]; participant 1379) was 0.4801. It also gave a TatRev/PolyA ([2]; participant 1379) of 6.105, a Pol ([2]; participant 2027) of 133.33 and a PolyA ([2]; participant 2027) of 36.92. It also gave a TAR ([2]; participant 2027) of 82.42, a TatRev ([2]; participant 2027) of 0 and an LLTR/TAR ([2]; participant 2027) of 0.6673. For the same compound, the PolyA/LLTR ([2]; participant 2027) was 0.6713, the Pol ([2]; participant 2147a) was 105.88 and the PolyA ([2]; participant 2147a) was 21.76. The TAR ([2]; participant 2147a) was 362.23, the TatRev ([2]; participant 2147a) was 28.42 and the LLTR/TAR ([2]; participant 2147a) was 0.1772. For the same compound, the PolyA/LLTR ([2]; participant 2147a) was 0.339, the TatRev/PolyA ([2]; participant 2147a) was 0.3013 and the Pol ([2]; participant 2161) was 169.45. For the same compound, the PolyA ([2]; participant 2161) was 268.67, the TAR ([2]; participant 2161) was 215.96 and the TatRev ([2]; participant 2161) was 176.87. It also gave an LLTR/TAR ([2]; participant 2161) of 1.7212, a PolyA/LLTR ([2]; participant 2161) of 0.72 and a TatRev/PolyA ([2]; participant 2161) of 0.6583. The Pol ([2]; participant 2256) was 18.46, the PolyA ([2]; participant 2256) was 16.27 and the TAR ([2]; participant 2256) was 31.94. It also gave a TatRev ([2]; participant 2256) of 1.4, an LLTR/TAR ([2]; participant 2256) of 0.5278 and a PolyA/LLTR ([2]; participant 2256) of 0.9648. For the same compound, the PolyA ([2]; participant 2461) was 1692.31, the TAR ([2]; participant 2461) was 52.19 and the LLTR/TAR ([2]; participant 2461) was 5.294. For the same compound, the PolyA/LLTR ([2]; participant 2461) was 6.125, the LLTR/TAR ([2]; participant 2747) was 0 and the Pol ([2]; participant 5557) was 23.16. For the same compound, the PolyA ([2]; participant 5557) was 23.33, the TAR ([2]; participant 5557) was 83.93 and the TatRev ([2]; participant 5557) was 0. For the same compound, the LLTR/TAR ([2]; participant 5557) was 0.6507, the PolyA/LLTR ([2]; participant 5557) was 0.4272 and the “Viability (Fig 1A)” value (PBMCs [3]; study participant 150a) was 99.57 % of activated DMSO. For the same compound, the “Viability (Fig 1A)” value (PBMCs [3]; study participant 2147b) was 98.97 % of activated DMSO.
